The target of data set [1] is human NE transporter (hNET) (Homo sapiens, UniProt P23975). Kind of data set: NE transporter competitive binding assay, [3H]nisoxetine. The procedure: (§1) Protocol. […] Bound radioactivity was determined by scintillation spectroscopy. Non-specific binding was defined as the amount of binding that occurred in the presence of 1.0 μM desipramine. The Ki values of the various test compounds were determined using standard methods.
as §1

Data set [2] addresses T1, 5HT uptake, rat brain synaptosomes (Rattus norvegicus, UniProt P31652).
T1 construct: into rat brain synaptosomes; from tissue; host or cells: rat brain synaptosomes
Description: Inhibition of [3H]-5HT uptake into synaptosomes. In kind it is biochemical. The following applies: read-out: Monoamine Uptake Inhibition, 5HT, IC50.

Data set [3] concerns the target T2, human H1 histaminergic receptor (Homo sapiens, UniProt P35367).
T2 construct: expressed in transfected cells; host or cells: HEK-293 cells (membranes)
Kind of data set: H1 histaminergic receptor competitive binding assay, [3H]pyrilamine. As to conditions: for reduction of H1 histaminergic receptor affinity compared to AT: relative to AT; for reduction of H1 histaminergic receptor affinity compared to NT: relative to NT. The procedure: Protocol. The affinities of AT, NT, (+)-E-10-OH-NT and (−)-E-10-OH-NT for the H1 histaminergic receptor were assessed in a competitive binding assay. For the assay, [^3H]pyrilamine (3 nM) was incubated with various concentrations of test compound for 1 hour at 22° C. with membranes prepared from human embryonic kidney (HEK-293) cells heterologously expressing the cloned human H1 histaminergic receptor. Bound radioactivity was determined by scintillation spectroscopy. Non-specific binding was defined as the amount of binding that occurred in the presence of 1.0 μM unlabeled pyrilamine.

In data set [4] the target is T3, α1b adrenergic receptor (Homo sapiens, UniProt P35368).
T3 construct: expressed in transfected cells; host or cells: CHO cells (membranes)
T3 sequence (P35368 1-520): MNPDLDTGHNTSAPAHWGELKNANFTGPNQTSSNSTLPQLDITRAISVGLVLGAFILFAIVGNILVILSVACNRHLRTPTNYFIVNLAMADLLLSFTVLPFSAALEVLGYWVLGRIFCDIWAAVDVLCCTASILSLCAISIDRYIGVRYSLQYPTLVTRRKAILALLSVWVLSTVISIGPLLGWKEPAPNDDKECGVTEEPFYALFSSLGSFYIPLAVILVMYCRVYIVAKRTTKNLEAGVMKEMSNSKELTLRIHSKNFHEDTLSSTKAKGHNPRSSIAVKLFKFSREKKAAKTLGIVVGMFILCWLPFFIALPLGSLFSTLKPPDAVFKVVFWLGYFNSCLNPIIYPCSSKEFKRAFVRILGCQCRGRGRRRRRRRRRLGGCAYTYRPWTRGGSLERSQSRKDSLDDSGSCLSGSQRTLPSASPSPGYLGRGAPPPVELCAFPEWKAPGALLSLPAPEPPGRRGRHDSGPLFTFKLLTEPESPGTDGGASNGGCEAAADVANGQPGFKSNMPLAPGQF
Kind of data set: α1b adrenergic receptor binding, [3H]prazocine. The procedure:
Affinity for the α1b adrenergic receptor was tested using membranes prepared from Chinese hamster ovary (CHO) cells heterologously expressing the cloned human receptor that were incubated with [^3H]prazocine (0.15 nM) in the presence of various concentrations of test compounds for 1 hour at 22° C. Nonspecific binding was determined in the presence of 10 μM phentolamine. Bound radioactivity was determined by scintillation spectroscopy.

The target in data set [5] is T4, CYP2C19 (Homo sapiens, UniProt P33261).
T4 construct: purchased BD Biosciences (San Jose, Calif.)
Kind of data set: CYP2C19 inhibition, DBF substrate. The class given is in vitro ADME. As to conditions: average of six replicate experiments; for inhibition at 10 µM: human, microsomes containing human recombinant CYP2C19, probe dibenzylfluorescein (DBF), 10 μM test compound, read-out: Inhibition of CYPD2C19, % inhib. at 10 μM; for IC50: 95% confidence limits in parentheses, read-out: Inhibition of CYPD2C19, IC50. The procedure:
CYP2C19 activity was measured using dibezylflourescein (DBF) as substrate. The source of enzyme was microsomes containing human recombinant CYP2C19 obtained from BD Biosciences (San Jose, Calif.). Conversion of DBF to fluorescein was measured using a PerkinElmer Fusion with a 485 nm excitation filter and a 535 nm emission filter.

The target of data set [6] is hERG (Homo sapiens, UniProt Q12809). Kind of data set: hERG channel inhibition. The class given is biochemical. The following applies: cloned hERG channel α subunit (expression host not stated), 10 μM test compound, read-out: percent inhibition of hERG channels. A general note: Block of hERG is tested as a sign of cardiac risk.
Data set [7] deals with T5, human muscarinic receptor M5 (Homo sapiens, UniProt P08912).
T5 construct: expressed in transfected cells; host or cells: CHO cells (membranes)
T5 sequence (P08912 1-532): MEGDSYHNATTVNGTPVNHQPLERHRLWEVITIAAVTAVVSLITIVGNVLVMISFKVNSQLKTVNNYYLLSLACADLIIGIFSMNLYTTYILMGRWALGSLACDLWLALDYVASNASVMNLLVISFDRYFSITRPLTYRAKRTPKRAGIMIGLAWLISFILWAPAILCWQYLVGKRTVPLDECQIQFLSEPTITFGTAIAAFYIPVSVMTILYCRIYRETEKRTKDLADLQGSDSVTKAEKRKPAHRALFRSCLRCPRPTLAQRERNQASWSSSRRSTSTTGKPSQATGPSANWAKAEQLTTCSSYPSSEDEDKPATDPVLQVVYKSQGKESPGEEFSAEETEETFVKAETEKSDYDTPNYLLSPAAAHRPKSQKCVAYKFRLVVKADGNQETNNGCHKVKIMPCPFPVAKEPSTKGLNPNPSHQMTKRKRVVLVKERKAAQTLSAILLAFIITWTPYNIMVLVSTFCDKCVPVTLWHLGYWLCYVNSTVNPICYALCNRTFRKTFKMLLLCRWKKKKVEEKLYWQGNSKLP
Kind of data set: Muscarinic M5 receptor binding, [3H]4-DAMP. The following applies: read-out: Affinity for Muscarinic Receptors, M5, Ki. The procedure: Protocol. The affinities of AT, NT (+)-E-10-OH-NT and (−)-E-10-OH-NT for muscarinic receptors M1, M2, M3, M4 and M5 were determined with membranes prepared from CHO cells heterologously expressing the cloned human muscarinic receptors M1, M2, M3, M4 and M5. For the assays, membranes and radiolabelled ligand were incubated with various concentrations of test compounds for 1 hour at 22° C. Bound radioactivity was determined by scintillation spectroscopy. Non-specific binding was defined as the amount of bound radioligand in the presence of 1.0 μM atropine. Radioligand for the M1 receptor was [^3H]pirenzepine (2 nM). Radioligand for the M2 receptor was [^3H]AF-DX384 (2 nM). Radioligand for the M3, M4, and M5 receptors was [^3H]4-DAMP.

For data set [8], the system named is rotarod performance in rats. Kind of data set: Rat rotarod assay of sedation. The class given is in vivo. The following applies: for peak deficit in rotarod performance: 30 mg/kg, i.p., peak at 30 minutes; for ED50 for impairment of rotarod performance: IP. The procedure: Protocol. The rat rotarod assay is commonly used to assess sedation associated with chemical drugs. […] Once the rats were in position, the timers were set to zero and the rotarod switched to accelerating mode. The rotarod accelerated from 4 to 40 rpm over a five-minute interval. The timers automatically turned off when the rats fell from the rotating drum, recording a latency to fall in seconds. […] The performance score was recorded in seconds for each interval. The baseline rotarod performance score was the latency to fall off the rotarod on the third training session. Baselines must have been greater than or equal to 60 seconds duration for the rat to be included in the experiment.
In general terms: In the rotarod test animals must keep their balance on a rotating rod.

Setting [9] is: Example 4, read-out: Monoamine Transporter Affinity, NE, Ki.
Where [10] appears, read: read-out: Affinity at α1b adrenergic receptor, Ki.

Several values for one entry are separate records, joined by “and”; a condition that tells them apart may be missing. Equal values may be shown once. Entries after “also recorded” stand apart in the source; their conditions may differ. Read-outs that look alike come from different tables or passages of the source.

T4 sequence (P33261 whole entry): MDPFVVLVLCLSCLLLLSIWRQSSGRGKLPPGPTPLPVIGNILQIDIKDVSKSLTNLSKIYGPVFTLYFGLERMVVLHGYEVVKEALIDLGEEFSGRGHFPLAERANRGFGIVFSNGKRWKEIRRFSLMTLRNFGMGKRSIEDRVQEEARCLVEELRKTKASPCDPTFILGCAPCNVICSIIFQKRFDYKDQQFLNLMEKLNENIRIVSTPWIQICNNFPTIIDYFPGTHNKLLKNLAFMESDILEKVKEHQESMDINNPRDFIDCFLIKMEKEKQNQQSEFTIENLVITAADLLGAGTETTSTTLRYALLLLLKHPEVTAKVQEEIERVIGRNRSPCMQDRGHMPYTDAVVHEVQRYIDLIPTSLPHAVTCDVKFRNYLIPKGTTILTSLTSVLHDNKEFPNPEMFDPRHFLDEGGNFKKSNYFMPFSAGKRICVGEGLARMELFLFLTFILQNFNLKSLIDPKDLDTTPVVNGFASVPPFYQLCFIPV
T2 sequence (P35367 whole entry): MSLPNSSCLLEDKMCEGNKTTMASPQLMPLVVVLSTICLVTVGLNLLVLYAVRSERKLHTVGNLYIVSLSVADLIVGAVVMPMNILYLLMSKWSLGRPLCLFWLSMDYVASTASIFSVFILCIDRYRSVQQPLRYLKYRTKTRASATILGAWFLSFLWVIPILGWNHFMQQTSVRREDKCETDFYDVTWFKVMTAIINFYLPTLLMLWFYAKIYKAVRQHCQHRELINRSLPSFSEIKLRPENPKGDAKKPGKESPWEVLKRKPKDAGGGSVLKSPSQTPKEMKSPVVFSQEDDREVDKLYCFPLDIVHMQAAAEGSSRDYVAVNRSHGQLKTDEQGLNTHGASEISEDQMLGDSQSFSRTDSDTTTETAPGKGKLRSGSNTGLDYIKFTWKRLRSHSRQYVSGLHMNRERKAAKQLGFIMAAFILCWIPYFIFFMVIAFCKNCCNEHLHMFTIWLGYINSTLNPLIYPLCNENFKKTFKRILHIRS
hERG, sequence (Q12809 whole entry): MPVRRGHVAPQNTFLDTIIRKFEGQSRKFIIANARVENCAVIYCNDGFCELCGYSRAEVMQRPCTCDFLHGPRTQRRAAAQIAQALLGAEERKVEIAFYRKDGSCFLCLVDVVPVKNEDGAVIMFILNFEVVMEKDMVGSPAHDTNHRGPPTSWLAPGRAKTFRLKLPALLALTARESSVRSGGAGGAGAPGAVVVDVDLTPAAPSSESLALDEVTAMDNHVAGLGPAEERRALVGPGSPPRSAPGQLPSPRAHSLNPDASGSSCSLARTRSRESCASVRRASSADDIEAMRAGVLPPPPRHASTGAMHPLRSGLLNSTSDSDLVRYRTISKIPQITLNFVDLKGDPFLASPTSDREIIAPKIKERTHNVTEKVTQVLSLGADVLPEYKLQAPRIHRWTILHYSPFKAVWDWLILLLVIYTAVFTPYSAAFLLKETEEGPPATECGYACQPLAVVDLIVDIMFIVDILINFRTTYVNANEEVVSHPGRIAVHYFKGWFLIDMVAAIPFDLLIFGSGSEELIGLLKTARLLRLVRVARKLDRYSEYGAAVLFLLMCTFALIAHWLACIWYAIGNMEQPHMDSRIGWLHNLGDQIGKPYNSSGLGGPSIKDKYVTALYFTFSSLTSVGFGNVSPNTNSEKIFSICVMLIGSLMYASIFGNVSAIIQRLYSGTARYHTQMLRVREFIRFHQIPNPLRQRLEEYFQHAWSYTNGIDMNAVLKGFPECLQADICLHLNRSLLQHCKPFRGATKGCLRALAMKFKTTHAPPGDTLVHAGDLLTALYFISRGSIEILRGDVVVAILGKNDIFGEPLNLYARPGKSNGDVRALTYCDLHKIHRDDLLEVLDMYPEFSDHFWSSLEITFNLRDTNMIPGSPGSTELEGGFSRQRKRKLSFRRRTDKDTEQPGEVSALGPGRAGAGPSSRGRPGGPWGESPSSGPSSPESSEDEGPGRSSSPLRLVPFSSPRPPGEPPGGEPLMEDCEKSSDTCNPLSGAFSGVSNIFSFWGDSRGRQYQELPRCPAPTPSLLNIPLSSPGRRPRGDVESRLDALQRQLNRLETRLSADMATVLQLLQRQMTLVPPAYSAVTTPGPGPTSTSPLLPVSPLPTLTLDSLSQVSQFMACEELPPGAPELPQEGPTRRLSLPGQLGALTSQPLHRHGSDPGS
human NE transporter (hNET), sequence (P23975 whole entry): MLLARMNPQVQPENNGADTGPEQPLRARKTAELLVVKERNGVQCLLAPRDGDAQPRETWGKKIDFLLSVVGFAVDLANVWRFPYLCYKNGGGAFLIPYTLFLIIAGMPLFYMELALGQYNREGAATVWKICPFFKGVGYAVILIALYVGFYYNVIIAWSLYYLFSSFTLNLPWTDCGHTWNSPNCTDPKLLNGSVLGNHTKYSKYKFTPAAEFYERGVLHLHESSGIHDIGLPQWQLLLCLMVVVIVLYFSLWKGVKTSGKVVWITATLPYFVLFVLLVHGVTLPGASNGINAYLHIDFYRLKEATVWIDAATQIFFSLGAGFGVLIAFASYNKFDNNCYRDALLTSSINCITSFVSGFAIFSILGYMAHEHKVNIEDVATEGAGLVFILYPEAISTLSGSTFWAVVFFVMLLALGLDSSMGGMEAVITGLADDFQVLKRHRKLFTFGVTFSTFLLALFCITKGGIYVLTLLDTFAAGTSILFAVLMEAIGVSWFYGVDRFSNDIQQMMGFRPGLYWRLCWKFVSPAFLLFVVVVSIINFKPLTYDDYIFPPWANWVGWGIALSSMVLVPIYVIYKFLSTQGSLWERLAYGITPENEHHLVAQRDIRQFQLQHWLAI
T1 sequence (P31652 whole entry): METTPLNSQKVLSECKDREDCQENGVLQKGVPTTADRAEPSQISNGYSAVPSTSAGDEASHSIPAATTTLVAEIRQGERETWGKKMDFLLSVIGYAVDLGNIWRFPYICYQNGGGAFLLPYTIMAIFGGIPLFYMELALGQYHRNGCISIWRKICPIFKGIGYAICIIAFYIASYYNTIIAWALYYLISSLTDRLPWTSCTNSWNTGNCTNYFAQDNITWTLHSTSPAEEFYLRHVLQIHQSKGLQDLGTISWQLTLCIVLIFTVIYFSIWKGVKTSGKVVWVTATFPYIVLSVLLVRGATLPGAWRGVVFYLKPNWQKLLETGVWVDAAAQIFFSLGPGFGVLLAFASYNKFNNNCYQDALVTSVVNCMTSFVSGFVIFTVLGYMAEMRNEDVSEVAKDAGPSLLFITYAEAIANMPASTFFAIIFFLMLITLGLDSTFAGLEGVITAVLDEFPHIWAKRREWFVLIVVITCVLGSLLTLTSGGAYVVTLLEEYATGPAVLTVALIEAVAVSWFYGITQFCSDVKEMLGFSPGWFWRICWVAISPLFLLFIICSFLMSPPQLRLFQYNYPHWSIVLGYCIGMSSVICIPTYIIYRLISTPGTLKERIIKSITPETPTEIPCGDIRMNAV

For `CNCC/C=C1\c2ccccc2C[C@H](O)c2ccccc21` (stereo in doubt) [(+)-E-10-OH-NT], the Ki (as a rule, the dissociation constant of the complex between target and ligand, obtained from inhibition or displacement) in data set [1] (setting [9]) is 0.052 µM; in data set [1] (Example 14, read-out: NET Ki), 0.095 µM; in data set [4] (setting [10]) it was 0.69 µM; in data set [7], 0.28 µM. For the same compound, in data set [2], the half-inhibitory concentration (IC50) (in general, the concentration that gives 50% inhibition) was determined as 0.86 µM. Also, the “reduction of H1 histaminergic receptor affinity compared to AT” value in data set [3] amounted to 220 fold. In addition, the “reduction of H1 histaminergic receptor affinity compared to NT” value in data set [3] is 40 fold. Further, the inhibition (usually how much of the control response was suppressed) at 10 µM in data set [5] stood at 20%; in data set [6] it was 8.8%.
On to `CNCC/C=C1\c2ccccc2C[C@@H](O)c2ccccc21` (stereo in doubt) [(−)-E-10-OH-NT], for which the inhibition constant (Ki) in data set [1] (setting [9]) came to 0.044 µM; in data set [1] (Example 14, read-out: NET Ki), 0.081 µM; in data set [4] (setting [10]), 2.6 µM; in data set [7] it was 0.15 µM. Moreover, in data set [2], the IC50 came to 4.4 µM. The “reduction of H1 histaminergic receptor affinity compared to AT” value in data set [3] worked out at 220 fold. Moreover, the “reduction of H1 histaminergic receptor affinity compared to NT” value in data set [3] is 40 fold. Also, the “impairment of rotarod performance” value in data set [8] (30 mg/kg IP, rats (Example 17)) amounted to 5%. Further, the “peak deficit in rotarod performance” value in data set [8] (rats) is “no impairment in rotarod performance; also recorded: no significant impairment in performance; also recorded: no impairment of performance”. The “ED50 for impairment of rotarod performance” value in data set [8] (rats) was 120 mg/kg IP. The results for the inhibition at 10 µM in data set [5] and in data set [6] were 24% and 6%, respectively.
`CN(C)CCC=C1c2ccccc2CCc2ccccc21` [AT, amitriptyline, reference compound]: in data set [8] (rats), the “peak deficit in rotarod performance” value amounted to 51±20% and the “ED50 for impairment of rotarod performance” value is on record as 27 mg/kg IP. Also, the “maximal impairment of rotarod performance” value in data set [8] (100 mg/kg IP, rats) is 96%. For the same compound, the Ki in data set [4] (setting [10]) is 0.0059 µM. Moreover, the IC50 in data set [5] stood at 3.5 µM. The Ki in data set [7] came out at 0.0035 µM.
Turning to `CNCCC=C1c2ccccc2CCc2ccccc21` [NT, nortriptyline, reference compound], the “peak deficit in rotarod performance” value in data set [8] (rats) is 60±14% and 60±40%. The figures for the inhibition constant (Ki) in data set [4] and in data set [7] were 0.021 µM and 0.015 µM, respectively. The IC50 in data set [5] came to 1.5 µM. For the same compound, the inhibition at 10 µM in data set [6] came out at 55.1%.

(Values after patent US20120178815A1, “Compositions of (-)-E-10-OH-NT and Methods for Their Synthesis and Use” (Adolor Corporation, priority 2007, published 2012).)
